EP0060994A1, “Bis-hydroxyethylmercapto-1,10-decane derivative, process for its preparation, and pharmaceutical compositions containing it” (LABORATORI PROPHIN S.p.A., priority 1981, dated 1982)
Like-named read-outs stand apart in the source and are kept apart here.

What was measured:
[1] = tested on: aus dem Epydimalgewebe der Ratten isolierten und in vitro inkubierten Fettzellen; assay: tissue or blood; settings: 0.5 h
Text: Die in der untenanliegenden Tabelle hervorgebrachten Resultate wurden auf, aus dem Epydimalgewebe der Ratten isolierten und in vitro inkubierten Fettzellen durchgeführt, wobei die Befreiung von Glyzerol als Parameter der Lypolysis in Anbetracht gezogen wurde.
Die spontane Lypolysis in Abwesenheit von Arzneimitteln wurde als Vergleichstermin in Anbetracht gezogen.
Die Hemmungsprozentualen beziehen sich auf die spontane (erste Spalte), von Epynephrin induzierte (zweite Spalte) und von Theophyllin induzierte (dritte Spalte) Lypolysis.

[2] = tested on: Maus (Swissstamm); settings: mouse, oral, same experimental conditions; literature value; cited from earlier work
[3] = tested on: Lypolysis; settings: in the presence of zyklischem AMP-dibutyrat; cited from earlier work
[4] = read-out: Lypolysis +Epynephrin 10^-6M
[5] = read-out: Lypolysis +Theophyllin 3x10^-4M

Compound `CNCC(O)c1ccc(O)c(O)c1` (stereo not drawn) [Epynephrin] has a fold induction at 1 µM ([1]; read-out: von Epynephrin in Vergleich mit der spontanen Lypolysis induzierte Zunahme) of 12.8.

`OCc1cccnc1` [N, Nicotinol] gave an inhibition at 2000 µM [1, 4] of 38%, an inhibition at 200 µM [1, 5] of 37% and an inhibition at 2000 µM [1, 5] of 60%. The inhibition at 200 µM ([1]; read-out: Lypolysis Spontane) was 60% and the inhibition at 2000 µM ([1]; read-out: Lypolysis Spontane) was 89%.

Compound `OCCSCCCCCCCCCCSCCO` [T, Thiadenol] has an inhibition at 1000 µM [1, 4] of 33%, an inhibition at 100 µM [1, 5] of 34% and an inhibition at 1000 µM [1, 5] of 47%. For the same compound, the LD50-Wert [2] was 10 g/kg and the “in vitro lypolysishemmende Wirkung” value [3] was “lypolysishemmende Wirkung”.

Compound `O=C(OCCSCCCCCCCCCCSCCOC(=O)OCc1cccnc1)OCc1cccnc1` [TN, Gemischtes Doppelcarbonat des Bis-hydroxyethylmercapto-1,10-decans und 3-Pyridylmethanols] has an inhibition at 100 µM [1, 4] of 34%, an inhibition at 1000 µM [1, 4] of 58% and an inhibition at 100 µM [1, 5] of 30%. It also gave an inhibition at 1000 µM [1, 5] of 69%, an inhibition at 100 µM ([1]; read-out: Lypolysis Spontane) of 70% and an inhibition at 1000 µM ([1]; read-out: Lypolysis Spontane) of 84%.

Work on `Cn1c(=O)c2[nH]cnc2n(C)c1=O` [Theophyllin] yielded a fold induction at 300 µM ([1]; read-out: von Theophyllin in Vergleich mit der spontanen Lypolysis induzierte Zunahme) of 7.6.
